Consider one sequence from US20240415920A1, “PEPTIDE HAVING ACTIVITY OF PREVENTING HAIR LOSS OR PROMOTING HAIR GROWTH, AND USE THEREOF” (CAREGEN CO., LTD., priority 2021, published 2024).

What all share (type): cell-based, human
One test deals with MSX2. The test is described as follows: RT-PCR of MSX2 expression in HHGMC. Particulars: peptide 10 nM, 100 nM, 1 μM, 72 hours, FIG. 7. On the procedure:
Using the peptide of the present invention consisting of the amino acid sequence of SEQ ID NO: 1 prepared according to Preparation Example above, it was confirmed whether it promoted the expression of transcription factors related to the activity of germinal matrix cells, a type of cell that forms hair.
Specifically, HHGMC (human hair germinal matrix cell, Sciencell, USA) was seeded in a 6-well culture plate at 4×10^5 cells/well and then cultured in MSC complete medium (mesenchymal stem cell complete media) for 24 hours. Next, the medium was replaced with serum free MSC complete medium and cultured again for 24 hours. Then, the HHGMC was treated with the peptide of SEQ ID NO: 1 prepared in the Preparation Example at concentrations of 10 nM, 100 nM, and 1 μM, respectively, and cultured at 37° C. for 72 hours. As a positive control, EGF was treated at a concentration of 50 nM, and as a negative control, HHGMC without any treatment was used. […] Next, cDNA was synthesized using a cDNA synthesis kit (enzynomics, Korea) by quantification using nano drop, and PCR was performed using primers for MSX2 consisting of base sequences according to Table 4 below and PCR premix (enzynomics, Korea). Electrophoresis was performed on a 1.5% agarose gel, and MSX2 mRNA was detected using a band analysis system (Bio-Rad gel image system).

The test system of the next test is Keratin 14. The test is described as follows: RT-PCR of Keratin 14 expression in HHORSC. Particulars: peptide 10 nM, 100 nM, 1 μM, 72 hours, FIG. 6. How it is done: Using the peptide of the present invention consisting of the amino acid sequence of SEQ ID NO: 1 prepared according to Preparation Example above, it was confirmed whether it promotes the activity of outer root sheath cells, a type of cell that forms hair follicles.
Specifically, HHORSC (human hair outer root sheath cell, Sciencell, USA) was seeded in a 6-well culture plate at 4×10^5 cells/well and then cultured in MSC complete medium (mesenchymal stem cell complete media) for 24 hours. Next, the medium was replaced with serum free MSC complete medium and cultured again for 24 hours. Then, the HHORSC was treated with the peptide of Preparation Example consisting of amino acid sequence of SEQ ID NO: 1 at concentrations of 10 nM, 100 nM, and 1 μM, respectively, and cultured at 37° C. for 72 hours. […] Then, CDNA was synthesized using a cDNA synthesis kit (enzynomics, Korea) by quantification using nano drop, and PCR was performed using primers for Ha3-II, Keratin 5, Keratin 14, and Keratin 19 (the base sequences of each primer are shown in Table 3 below) and PCR premix (enzynomics, Korea). Electrophoresis was performed on a 1.5% agarose gel, and the mRNAs of Ha3-II, Keratin 5, Keratin 14, and Keratin 19 were detected using a band analysis system (Bio-Rad gel image system).

In the next test the test system is p-AKT. The test is described as follows: Western blotting of phosphorylated AKT in HHFDPC. The conditions noted are these: peptide 10 nM, 100 nM, 1 μM, 24 hours, FIG. 2. From the text: In the HHFDPC treated with the peptide of the present invention, changes in related factors that affect cell proliferation or differentiation were confirmed to determine whether the peptide of the present invention could promote proliferation and differentiation of HHFDPC by increasing them.
First, phosphorylated forms of AKT and ERK, which act as signaling molecules related to the proliferation of HHFDPC, were confirmed through Western blotting. Specifically, HHFDPC as in [Experiment Example 1-1] above was seeded at 4λ10^5 cells/well in a 6-well culture plate, cultured in MSC complete medium (mesenchymal stem cell complete media) for 24 hours, and then the medium was replaced with serum free MSC complete medium and cultured for another 24 hours. Then, the HHFDPC was treated with the peptide of SEQ ID NO: 1 prepared in the Preparation Example at concentrations of 10 nM, 100 nM, and 1 μM, respectively, and cultured at 37° C. for 24 hours. As a positive control, minoxidil was treated at a concentration of 1 μM, and as a negative control, HHFDPC without any treatment was used. Then, Western blotting was performed to detect phosphorylated AKT and phosphorylated ERK. […] After washing again with 0.1% PBS-T (0.1% Tween-20 in PBS) three times for 15 minutes each, p-AKT and p-ERK were detected by treatment with ECL solution (GE Healthcare, USA).
(In general: Immunoblotting shows a protein as a band on a membrane.)

Regarding “GCGLFVAAC [peptide of the present invention]”, in the test with MSX2, the “MSX2 mRNA amount compared to the untreated control group” value is listed as “the amount of mRNA increased further”. The “Keratin 14 mRNA amount compared to the control group without treatment” value in the test with Keratin 14 is given as “the amount of mRNA increased further”. In the test on p-AKT, the “phosphorylation of AKT (p-AKT) compared to the control group not treated with the peptide” value is “phosphorylation was found to be increased”.
